Laboratory results: patent publication US20040001845A1, “Cytotoxic T-cell epitopes of HIV-1 virus” (priority 2002, published 2004)

Test system: PBMC (HIV-1-specific CD8+ T cells) of subject AC-06
Assay: IFN-γ Elispot assay of HIV-1-specific CD8+ T cell responses in subject AC-06
Format: cell-based, human
[1] = subject AC-06, 0 months after infection
[2] = subject AC-06, 2 months after infection
[3] = subject AC-06, 6 months after infection
[4] = subject AC-06, 12 months after infection
[5] = subject AC-06, 18 months after infection
[6] = subject AC-06, 20 months after infection
[7] = subject AC-06, 24 months after infection
[8] = subject AC-06, 29.5 months after infection
[9] = subject AC-06, 34 months after infection

| Sequence | magnitude of HIV-1-specific CD8+ T cell responses at the single epitope level [1] [SFC/Million PBMC] | magnitude of HIV-1-specific CD8+ T cell responses at the single epitope level [2] [SFC/Million PBMC] | magnitude of HIV-1-specific CD8+ T cell responses at the single epitope level [3] [SFC/Million PBMC] | magnitude of HIV-1-specific CD8+ T cell responses at the single epitope level [4] [SFC/Million PBMC] | magnitude of HIV-1-specific CD8+ T cell responses at the single epitope level [5] [SFC/Million PBMC] | magnitude of HIV-1-specific CD8+ T cell responses at the single epitope level [6] [SFC/Million PBMC] | magnitude of HIV-1-specific CD8+ T cell responses at the single epitope level [7] [SFC/Million PBMC] | magnitude of HIV-1-specific CD8+ T cell responses at the single epitope level [8] [SFC/Million PBMC] | magnitude of HIV-1-specific CD8+ T cell responses at the single epitope level [9] [SFC/Million PBMC] |
| --- | --- | --- | --- | --- | --- | --- | --- | --- | --- |
| ERILSTYLGR [A3-ER10] | 0 | 0 | 0 | 0 | 0 | 0 | 310 | 460 | 1300 |
| FPRIWLHGL [B7-FL9] | 0 | 0 | 0 | 0 | 0 | 0 | 210 | 380 | 960 |
| GIPHPAGLK [A3-GK9] | 0 | 0 | 0 | 0 | 0 | 0 | 0 | 240 | 1800 |
| HMYISKKAK [A3-HK9] | 0 | 0 | 0 | 0 | 0 | 110 | 320 | 1000 | 1600 |
| HPRVSSEVHI [B7-HI10] | 0 | 0 | 0 | 0 | 0 | 500 | 880 | 1800 | 1800 |
| HPVHAGPIA [B7-HA9] | 0 | 0 | 0 | 0 | 0 | 0 | 0 | 700 | 360 |
| KLVDFRELNK [A3-KK10] | 0 | 0 | 0 | 0 | 0 | 0 | 70 | 1200 | 1800 |
